Results from patent US9775831B2, “Combinations comprising biphenyl derivatives for use in the treatment of HCV” (BRISTOL-MYERS SQUIBB COMPANY, priority 2013, dated 2017).

Test system: genotype-1a variant with glutamine 30 changed to glutamate in the NS5A protein
Experiment: HCV replicon cell-based assay, NS5A synergy with BMS-790052
Conditions: genotype 1a Q→E variant; test compound titrated in combination with NS5A-targeting compound (BMS-790052 fixed at 200 nM)
From the text: The NS5A synergistic inhibitory effect of test compounds can be determined using various amounts of an NS5A-targeting compound with titration of a second compound of interest. […] In one embodiment, the HCV genotype strain can be genotype 1a containing a change at amino acid 30 of the NS5A protein consisting of glutamine to glutamate. The test compound can be chosen from compounds listed above or from others present in the literature.

Row | Compound | Fold Synergistic (1a-QE)
1 | CC(C)(C)NC(=O)C(c1ncc(-c2ccc(-c3ccc(-c4cnc(C(C(=O)NC(C)(C)C)C(C)(C)C)[nH]4)cc3)cc2)[nH]1)C(C)(C)C (stereo not drawn) [Example B1] | >100 Fold
2 | CC(C)(C)C(C(=O)Nc1cccc(Cl)c1)c1ncc(-c2ccc(-c3ccc(-c4cnc(C(C(=O)Nc5cccc(Cl)c5)C(C)(C)C)[nH]4)cc3)cc2)[nH]1 (stereo not drawn) [Example B2] | <10 Fold
3 | CCN(CC)C(=O)C(c1ncc(-c2ccc(-c3ccc(-c4cnc(C(C(=O)N(CC)CC)C(C)(C)C)[nH]4)cc3)cc2)[nH]1)C(C)(C)C (stereo not drawn) [Example B3] | >10 Fold
4 | CC(C)(C)C(C(=O)N1CCCC1)c1ncc(-c2ccc(-c3ccc(-c4cnc(C(C(=O)N5CCCC5)C(C)(C)C)[nH]4)cc3)cc2)[nH]1 (stereo not drawn) [Example B4] | <10 Fold
5 | CC(C)(C)C(C(=O)NC1CCCCC1)c1ncc(-c2ccc(-c3ccc(-c4cnc(C(C(=O)NC5CCCCC5)C(C)(C)C)[nH]4)cc3)cc2)[nH]1 (stereo not drawn) [Example B5] | <10 Fold
6 | COC(=O)[C@@H](NC(=O)C[C@@H](CCC(F)(F)F)c1ncc(-c2ccc(-c3ccc(-c4cnc([C@H](CCC(F)(F)F)CC(=O)N[C@H](C(=O)OC)C(C)C)[nH]4)cc3)cc2)[nH]1)C(C)C [Example MD-1] | >10 Fold
7 | O=C(C[C@@H](CCC(F)(F)F)c1ncc(-c2ccc(-c3ccc(-c4cnc([C@H](CCC(F)(F)F)CC(=O)N5CCC(F)CC5)[nH]4)cc3)cc2)[nH]1)N1CCC(F)CC1 [Example MD-2] | >100 Fold
8 | CC(C)CNC(=O)C[C@@H](CCC(F)(F)F)c1ncc(-c2ccc(-c3ccc(-c4cnc([C@H](CCC(F)(F)F)CC(=O)NCC(C)C)[nH]4)cc3)cc2)[nH]1 [Example MD-3] | >10 Fold
9 | CC(C)CNC(=O)C[C@@H](CCC(F)(F)F)c1ncc(-c2ccc(-c3ccc(-c4cnc([C@H](CCC(F)(F)F)CC(=O)O)[nH]4)cc3)cc2)[nH]1 [Example MD-4] | <10 Fold
10 | CCO[C@H](CC(=O)N(NC(=O)OC)C(C)C)c1ncc(-c2ccc(-c3ccc(-c4cnc([C@@H](CC(=O)N(NC(=O)OC)C(C)C)OCC)[nH]4)cc3)cc2)[nH]1 [Example MD-5] | >10 Fold
11 | CCO[C@H](CC(=O)NCC(C)C)c1nc(-c2ccc(-c3ccc(-c4c[nH]c([C@@H](CC(=O)NCC(C)C)OCC)n4)cc3)cc2)c[nH]1 [Example MD-6] | >10 Fold
12 | CC(C)CNC(=O)[C@@H]1OC(C)(C)O[C@H]1c1ncc(-c2ccc(-c3ccc(-c4cnc([C@@H]5OC(C)(C)O[C@H]5C(=O)NCC(C)C)[nH]4)cc3)cc2)[nH]1 [Example MD-7] | <10 Fold
13 | CC1(C)O[C@@H](C(N)=O)[C@H](c2ncc(-c3ccc(-c4ccc(-c5cnc([C@@H]6OC(C)(C)O[C@H]6C(N)=O)[nH]5)cc4)cc3)[nH]2)O1 [Example MD-9] | <10 Fold
14 | CC(C)CNC(=O)C[C@@H](C)c1nc(-c2ccc(-c3ccc(-c4c[nH]c([C@H](C)CC(=O)NCC(C)C)n4)cc3)cc2)c[nH]1 [Example MD-11] | >100 Fold
15 | C[C@H](CC(=O)N1CCC(F)(F)CC1)c1nc(-c2ccc(-c3ccc(-c4c[nH]c([C@H](C)CC(=O)N5CCC(F)(F)CC5)n4)cc3)cc2)c[nH]1 [Example MD-13] | >100 Fold
16 | CCOC(=O)[C@@H]1OCO[C@H]1c1ncc(-c2ccc(-c3ccc(-c4cnc([C@@H]5OCO[C@H]5C(=O)OCC)[nH]4)cc3)cc2)[nH]1 [Example MD-15] | <10 Fold
17 | CC(C)[C@H](CC(=O)NCC(C)(C)C)c1ncc(-c2ccc(-c3ccc(-c4cnc([C@@H](CC(=O)NCC(C)(C)C)C(C)C)[nH]4)cc3)cc2)[nH]1 [Example MD-18] | >10 Fold
18 | CC(C)[C@H](CC(=O)NCc1ccccc1Cl)c1ncc(-c2ccc(-c3ccc(-c4cnc([C@@H](CC(=O)NCc5ccccc5Cl)C(C)C)[nH]4)cc3)cc2)[nH]1 [Example MD-19] | >100 Fold
